Results reported in patent US8247211B2, “Glycopeptide antibiotics” (American Cyanamid Company, priority 2001, dated 2012).
In brackets after ≈: the same amount, converted by molar mass. Numbered stars: 1 amine (or outer) side, 2 acyl side, 3 side chain; on linkers, the order of the positions; unused ones are H or OH. Square brackets hold non-standard residues; d marks the D form. Peptide text beside a SMILES is read from it. * marks the point of attachment. ξ: configuration not given here. X1 = N=C1NCC(C(O)C(N[*:1])C(=O)[*:2])N1C1OC(CO)C(O)C(O)C1O; ξEnduracididine(βξ-OH,4'ξ) = N=C1NCC(C(O)C(N)C(=O)O)N1; X2 = OCC1OC(OC2C(CO)OC(*)C(O)C2O)C(O)C(O)C1O; Cha = N[CH](CC1CCCCC1)C(=O)O

Legend:
Enterococcus sp. = test: In vitro antibacterial evaluation: minimum inhibitory concentration (MIC), broth dilution method; type: cell-based
Procedure, shortened: (§1)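 NCCLS M7-A2 broth dilution with Mueller-Hinton II, testing 64-0.06 μg/mL antibiotic against 5×10^5 CFU/mL inocula. Test strains include recent methicillin-, penicillin- or vancomycin-resistant clinical isolates. MIC is the lowest concentration preventing growth.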

Escherichia coli [1] = test: as above; type: cell-based
Procedure, shortened: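 Test strains, among them recent clinical isolates carrying methicillin, penicillin and/or vancomycin resistance, were inoculated at 5×10^5 CFU/mL. A broth dilution series spanning 64-0.06 μg/mL in Muller-Hinton II […] (NCCLS M7-A2) defined the MIC as the lowest growth-inhibiting concentration.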

Staphylococcus sp. = test: as above; type: cell-based; details: 18 hours at 35° C.
Procedure, shortened: as §1

Streptococcus sp. = test: as above; type: cell-based; details: 18 hours at 35° C.
Procedure, shortened: as §1

[2] = test system: Staphylococcus aureus-SMITH (GC 4543); test: Acute lethal infection in mice (ED50); type: in vivo; details: female CD-1 mice, intraperitoneal challenge, intravenous dose 30 min. after infection, 7 day survival ratios
Procedure, shortened: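 Bacteria suspended in Trypticase Soy Broth or hog gastric mucin are injected intraperitoneally into female CD-1 mice at a dose killing untreated animals within 24-48 hr. Thirty minutes later, test agent is administered intravenously. Survival at day 7 is scored.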

[3] = Anatomic pathology (heart and kidney histopathology) in mice; type: in vivo, CD-1 mice; details: 20 mg/kg intravenously daily for 9 days, microscopic histopathology on day 10
Procedure, shortened: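 Histopathology on H&E-stained, paraffin-embedded sections, subjectively scored (slight, mild, moderate, marked, severe) relative to untreated controls. Dosing: glycopeptide antibiotics 20 mg/kg intravenously once daily ×9 days in 20-day-old CD-1 mice, n=5 per group including vehicle.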

Escherichia coli [4] = test: In vitro antibacterial evaluation: minimum inhibitory concentration (MIC), broth dilution method; type: cell-based; remark: listed apart in the source
[5] = type: in vivo; details: mice, 20 mg/kg intravenously daily for 9 days, serum on day 10
Protocol: 20-day-old CD-1 mice were divided into a vehicle control group (5 mice) and a treatment group (5 mice). Samples of glycopeptide antibiotics were administered at 20 mg/kg intravenously daily for 9 days. Animals were necropsied on day 10 Sera were analyzed for BUN (blood urea nitrogen), creatinine, AST (aspartic aminotransferase), and ALT (alanine aminotransferase) by routine, standard, automated methods using an Hitachi 747 chemistry analyzer.

Structure (SMILES): N=C1NCC(C(O)C2NC(=O)C(Cc3ccc(OC4OC(CO)C(OC5OC(CO)C(O)C(O)C5O)C(O)C4O)cc3)NC(=O)C(CC3CCCCC3)NC(=O)CNC(=O)C(CO)NC(=O)C(C(O)C3CNC(=N)N3C3OC(CO)C(O)C(O)C3O)NC2=O)N1 (stereo not drawn) [Example 263, Cyclo[3-cyclohexylalanyl-O-(4-O-hexopyranosylhexopyranosyl)tyrosyl-3-(2-iminoimidazolidin-4-yl)seryl-3-(3-hexopyranosyl-2-iminoimidazolidin-4-yl)serylserylglycyl]] (cyclo(G[Cha]Y(X2)[ξEnduracididine(βξ-OH,4'ξ)][X1]S); configuration not given here)
- MIC Enterococcus avium (GC 4558) (Enterococcus sp.; Enterococcus avium (GC 4558)): >64 µg/mL
- MIC Enterococcus faecalis (ATCC 29212) (Enterococcus sp.; Enterococcus faecalis (ATCC 29212)): >64 µg/mL
- MIC Enterococcus faecalis (GC 2242) (Enterococcus sp.; Enterococcus faecalis (GC 2242), 18 hours at 35° C.): >64 µg/mL
- MIC Enterococcus faecalis (GC 4552) (Enterococcus sp.; Enterococcus faecalis (GC 4552), 18 hours at 35° C.): >64 µg/mL
- MIC Enterococcus faecalis (GC 4553) (Enterococcus sp.; Enterococcus faecalis (GC 4553)): >64 µg/mL
- MIC Enterococcus faecalis (GC 4554) (Enterococcus sp.; Enterococcus faecalis (GC 4554)): >64 µg/mL
- MIC Enterococcus faecium (GC 2243) (Enterococcus sp.; Enterococcus faecium (GC 2243)): >64 µg/mL
- MIC Enterococcus faecium (GC 4556) (Enterococcus sp.; Enterococcus faecium (GC 4556)): >64 µg/mL
- MIC Enterococcus faecium (GC 4557) (Enterococcus sp.; Enterococcus faecium (GC 4557)): 32 µg/mL (≈ 24.9 µM)
- MIC Escherichia coli (GC 4559) (Escherichia coli [1]; Escherichia coli (GC 4559)): >64 µg/mL
- MIC Escherichia coli (GC 4560) (Escherichia coli [1]; Escherichia coli (GC 4560)): 16 µg/mL (≈ 12.4 µM)
- MIC Coagulase Negative Staphylococcus (GC 4547) (Staphylococcus sp.): 64 µg/mL (≈ 49.7 µM)
- MIC Coagulase Negative Staphylococcus (GC 4547) (Staphylococcus sp.; broth dilution): 64 µg/mL (≈ 49.7 µM)
- MIC Coagulase Negative Staphylococcus (GC 4548) (Staphylococcus sp.): 32 µg/mL (≈ 24.9 µM)
- MIC Coagulase Negative Staphylococcus (GC 4548) (Staphylococcus sp.; broth dilution): 32 µg/mL (≈ 24.9 µM)
- MIC Coagulase Negative Staphylococcus (GC 4549) (Staphylococcus sp.): 16 µg/mL (≈ 12.4 µM)
- MIC Coagulase Negative Staphylococcus (GC 4549) (Staphylococcus sp.; broth dilution): 16 µg/mL (≈ 12.4 µM)
- MIC Coagulase Negative Staphylococcus (GC 4551) (Staphylococcus sp.): 64 µg/mL (≈ 49.7 µM)
- MIC Coagulase Negative Staphylococcus (GC 4551) (Staphylococcus sp.; broth dilution): 64 µg/mL (≈ 49.7 µM)
- MIC Staphylococcus aureus (ATCC 29213) (Staphylococcus sp.): 64 µg/mL (≈ 49.7 µM)
- MIC Staphylococcus aureus (ATCC 29213) (Staphylococcus sp.; broth dilution): 64 µg/mL (≈ 49.7 µM)
- MIC Staphylococcus aureus (GC 1131) (Staphylococcus sp.): 64 µg/mL (≈ 49.7 µM)
- MIC Staphylococcus aureus (GC 1131) (Staphylococcus sp.; broth dilution): 64 µg/mL (≈ 49.7 µM)
- MIC Staphylococcus aureus (GC 4541) (Staphylococcus sp.): 64 µg/mL (≈ 49.7 µM)
- MIC Staphylococcus aureus (GC 4541) (Staphylococcus sp.; broth dilution): 64 µg/mL (≈ 49.7 µM)
- MIC Staphylococcus aureus (GC 4542) (Staphylococcus sp.): 64 µg/mL (≈ 49.7 µM)
- MIC Staphylococcus aureus (GC 4542) (Staphylococcus sp.; broth dilution): 64 µg/mL (≈ 49.7 µM)
- MIC Staphylococcus aureus (GC 4544) (Staphylococcus sp.): >64 µg/mL
- MIC Staphylococcus aureus (GC 4544) (Staphylococcus sp.; broth dilution): >64 µg/mL
- MIC Staphylococcus aureus (GC 4545) (Staphylococcus sp.): 64 µg/mL (≈ 49.7 µM)
- MIC Staphylococcus aureus (GC 4545) (Staphylococcus sp.; broth dilution): 64 µg/mL (≈ 49.7 µM)
- MIC Staphylococcus aureus-SMITH (GC 4543) (Staphylococcus sp.): 32 µg/mL (≈ 24.9 µM)
- MIC Staphylococcus aureus-SMITH (GC 4543) (Staphylococcus sp.; broth dilution): 32 µg/mL (≈ 24.9 µM)
- MIC Staphylococcus haemolyticus (GC 4546) (Staphylococcus sp.): 32 µg/mL (≈ 24.9 µM)
- MIC Staphylococcus haemolyticus (GC 4546) (Staphylococcus sp.; broth dilution): 32 µg/mL (≈ 24.9 µM)
- MIC Streptococcus agalactiae (GC 4564) (Streptococcus sp.; Streptococcus agalactiae (GC 4564)): 32 µg/mL (≈ 24.9 µM)
- MIC Streptococcus pyogenes (ID-3187) (Streptococcus sp.; Streptococcus pyogenes (ID-3187)): 32 µg/mL (≈ 24.9 µM)
- median effective dose (ED50), Staphylococcus aureus-SMITH (GC 4543) [2]: >8
- Anatomical Pathology (Day 10), Heart [3]: +
- Anatomical Pathology (Day 10), Kidney [3]: ++
- MIC Escherichia coli (ATCC 25922) (Escherichia coli [4]): >64 µg/mL

Structure (SMILES): CC(c1ccccc1)C1NC(=O)CNC(=O)C(CO)NC(=O)C(CC2CNC(=N)N2C2OC(CO)C(O)C(O)C2O)NC(=O)C(CC2CNC(=N)N2)NC(=O)C(Cc2ccc(OC3OC(CO)C(OC4OC(CO)C(O)C(O)C4O)C(O)C3O)cc2)NC1=O (stereo not drawn) [Example 277a, Cyclo[3-(2-iminoimidazolidin-4-yl)alanyl-3-(3-hexopyranosyl-2-iminoimidazolidin-4-yl)-alanylserylglycyl-β-methylphenylalanyl-O-(4-O-hexopyranosylhexopyranosyl]tyrosyl]]
- median effective dose (ED50), Staphylococcus aureus-SMITH (GC 4543) [2]: >8
- Clinical Chemistry (Day 10) % of Control, BUN [5]: +110%
- Anatomical Pathology (Day 10), Heart [3]: 0
- Anatomical Pathology (Day 10), Kidney [3]: ++

Structure (SMILES): CC(C)CC(=O)OCC1OC(OC2C(CO)OC(Oc3ccc(CC4NC(=O)C(C(C)c5ccccc5)NC(=O)CNC(=O)C(CO)NC(=O)C(CC5CNC(=N)N5C5OC(CO)C(O)C(O)C5O)NC(=O)C(CC5CNC(=N)N5)NC4=O)cc3)C(O)C2O)C(O)C(O)C1O (stereo not shown) [Example 277c]
- Clinical Chemistry (Day 10) % of Control, AST [5]: +253%
